Assay results reported in patent US20200147116A1, “Use of Paeoniflorin-6'-O-benzenesulfonate in treatment of Sjögren's syndrome” (NINGBO ZHIMING BIOTECHNOLOGY CO., LTD., priority 2017, published 2020).
Values joined by “and” are separate entries in the source; they are usually repeats but may differ in a detail not shown here. Equal entries are not always repeated. Marks after values point to notes of the source that are not given here.

How the values were obtained:
Type in all cases: in vivo
[1] = system: NOD mice; assay: Saliva amount in NOD mice; settings: NOD mice; for Saliva amount in NOD mice, Pre-administration: baseline before administration
Procedure: Before measurement, mice were anesthetized via intraperitoneal injection of 0.05 ml of 2.4% pentobarbital sodium, and the satisfactory anesthesia was smooth breathing, corneal reflex disappearance and limb muscle relaxation. After complete anesthesia, a mouse was placed in slightly tilted trendelenburg position, and its body was kept warm using the heater. The mouse was injected intraperitoneally with 0.1 ml of 0.025 mg/ml Pilocarpine, and 5 min later, a weighed cotton ball was placed in the mouth of the mouse for 10 min. After taking the ball out, the saliva weight of mice was measured by the wet weight method.
Therapeutic effects of on Sjögren's syndrome CP-25 in NOD mice.

[2] = system: NOD model mice; assay: Organic indexes (spleen, submaxillary gland, thymus) in NOD model mice; settings: 70 mg/kg
[3] = system: SS mice; assay: Organic indexes (spleen, submaxillary gland, thymus) in SS mice; settings: 70 mg/kg
From the text: 2 Sjögren's syndrome model mice: C57BL/6 female mice housed in a SPF environment with successful modeling (The animal model was made via repeated multi-point intracutaneous injection of submaxillary gland homogenate of homologous mice to tail and back of mice). The animal model was made via repeated multi-point intracutaneously injection of submaxillary gland homogenate of homologous mice to tail and back of mice, and the mice with successful modeling were randomly assigned to each group according to comprehensive conditions of mice. At the same time, the average weight and status of each group of mice should be as close as possible. Paeoniflorin-6′-O-benzenesulfonate, white crystalline powder, purity 98.5%, was dissolved in trace ethanol (75 mg of CP-25 was soluble in 40 μl of ethanol), and then sodium carboxymethylcellulose was added to formulate a suspension of CP-25. Corresponding dose gradient, low dose (17.5 mg/kg), medium dose (35 mg/kg) and high dose (70 mg/kg) of said pharmaceutical should be prepared before medication, stored in 4° C. refrigerator for use. High dose of said pharmaceutical should be incubated for half an hour before use.

[4] = system: submaxillary gland in SS mice; assay: Histopathological examination and grading of submaxillary gland in SS mice (H&E, Chisholm-Mason scale); settings: two weeks of administration, four mice of each group
Procedure: (§1) Mice were sacrificed after two weeks of administration, and then submaxillary glands of four mice of each group were removed and pathologically observed. At first, the submaxillary gland should be fixed in 10% buffered formalin for 24 h, followed by washing, dehydration and clearing, wax-filling, embedding, sectioning and finally H&E staining. […] Results were graded pathologically.
(§2) Note: The histological findings graded of submaxillary glands according to the Chisholm-Mason scale; grade 0, absence of lymphocytic infiltration; grade I, slight lymphocytic infiltration; grade II, moderate lymphocytic infiltration; grade III, one focus of lymphocytic infiltration per 4 mm^2 tissue; grade IV, more than one focus of lymphocytic infiltration per 4 mm^2 tissue (Note: One focus of lymphocytic infiltration has been defined as an aggregate of 50 or more lymphocytes gathered in the labial gland stroma per 4 mm^2 of tissue.

[5] = system: submaxillary glands in NOD mice; assay: Pathological grading of submaxillary glands in NOD mice; settings: NOD mice
Procedure: as §1, §2

[6] = system: Sjögren's syndrome model mice (C57BL/6 female mice); assay: Saliva amount in induced Sjögren's syndrome model mice (wet weight method after pilocarpine); settings: for Saliva amount in SS mice, Pre-administration / Saliva amount, Pre-administration: baseline before administration; for Saliva amount, One week after: one week of administration; for Curative effect judged on saliva amount after one week of medication: high dose of CP-25, TGP, Pae, HCQ at the doses of Table 3
Procedure: […] Water intake, saliva amount and submaxillary gland pathological analysis and score were determined respectively, on the day before administration, the 7th day and 14th day after administration. The therapeutic effects of CP-25 on Sjögren's syndrome were evaluated by comparison of changes of each index before and after treatment. 2 Sjögren's syndrome model mice: C57BL/6 female mice housed in a SPF environment with successful modeling (The animal model was made via repeated multi-point intracutaneous injection of submaxillary gland homogenate of homologous mice to tail and back of mice). The animal model was made via repeated multi-point intracutaneously injection of submaxillary gland homogenate of homologous mice to tail and back of mice, and the mice with successful modeling were randomly assigned to each group according to comprehensive conditions of mice. At the same time, the average weight and status of each group of mice should be as close as possible. […] […] High dose of said pharmaceutical should be incubated for half an hour before use. Before measurement, mice were anesthetized via intraperitoneal injection of 0.05 ml of 2.4% pentobarbital sodium, and the satisfactory anesthesia was smooth breathing, corneal reflex disappearance and limb muscle relaxation. After complete anesthesia, a mouse was placed in slightly tilted trendelenburg position, and its body was kept warm using the heater. The mouse was injected intraperitoneally with 0.1 ml of 0.025 mg/ml Pilocarpine, and 5 min later, a weighed cotton ball was placed in the mouth of the mouse for 10 min. After taking the ball out, the saliva weight of mice was measured by the wet weight method.

For `C[C@@]12C[C@@]3(O)O[C@@H](O1)[C@]1(COC(=O)c4ccccc4)[C@H]3C[C@@]12O[C@@H]1O[C@H](CO)[C@@H](O)[C@H](O)[C@H]1O` [Pae, Paeoniflorin], the “Saliva amount in NOD mice, One week after administration” value ([1]; 70 mg/kg) was 15.40 ± 1.62 mg/each mouse/10 min, the “Saliva amount in NOD mice, Two weeks after administration” value ([1]; 70 mg/kg) was 14.75 ± 1.25 mg/each mouse/10 min and the “Saliva amount in NOD mice, Pre-administration” value ([1]; dose group 70 mg/kg) was 19.83 ± 1.94 mg/each mouse/10 min. The Spleen index [2] was 5.3 ± 0.5 mg/g, the Submaxillary gland index [2] was 4.5 ± 0.5^ mg/g and the Thymus index [2] was 1.0 ± 0.1 mg/g. For the same compound, the Spleen index [3] was 9.15 ± 1.44 mg/g, the Submaxillary gland index [3] was 3.71 ± 0.68 mg/g and the Thymus index [3] was 0.85 ± 0.23 mg/g. For the same compound, the “Score: mice with submaxillary gland pathology Grade 0” value ([4]; 70 mg/kg) was 0, the “Score: mice with submaxillary gland pathology Grade I” value ([4]; 70 mg/kg) was 0 and the “Score: mice with submaxillary gland pathology Grade II” value ([4]; 70 mg/kg) was 0. The “Score: mice with submaxillary gland pathology Grade III” value ([4]; 70 mg/kg, 70 mg/kg) was 2 and 1, the “Score: mice with submaxillary gland pathology Grade 0” value ([5]; 70 mg/kg) was 0 and the “Score: mice with submaxillary gland pathology Grade I” value ([5]; 70 mg/kg) was 0. For the same compound, the “Score: mice with submaxillary gland pathology Grade II” value ([5]; 70 mg/kg) was 0, the “Score: mice with submaxillary gland pathology Grade III” value ([5]; 70 mg/kg) was 1 and the “Score: mice with submaxillary gland pathology Grade IV” value ([5]; 70 mg/kg) was 3. The “Saliva amount in SS mice, One week after administration” value ([6]; Example 1, C57BL/6 SS mice, 70 mg/kg) was 17.01 ± 2.10 mg/each mouse/10 min, the “Saliva amount in SS mice, Two weeks after administration” value ([6]; Example 1, C57BL/6 SS mice, 70 mg/kg, two weeks) was 17.17 ± 2.72^ mg/each mouse/10 min and the “Saliva amount in SS mice, Pre-administration” value ([6]; Example 1, C57BL/6 SS mice, dose group 70 mg/kg) was 23.50 ± 2.89 mg/each mouse/10 min. For the same compound, the “Saliva amount, One week after” value ([6]; SS model mice, 70 mg/kg) was 17.01 ± 2.10 mg/10 min, the “Saliva amount, Two weeks after” value ([6]; SS model mice, 70 mg/kg, two weeks of administration) was 17.17 ± 2.72^ mg/10 min and the “Saliva amount, Pre-administration” value ([6]; SS model mice, dose group 70 mg/kg) was 23.50 ± 2.89 mg/10 min. The “Curative effect judged on saliva amount after one week of medication” value ([6]; SS model mice) was “did not show apparent effect”.

`CCN(CCO)CCCC(C)Nc1ccnc2cc(Cl)ccc12` (stereo not shown) [HCQ, hydroxychloroquine, reference compound] was tested, and the “Saliva amount in NOD mice, One week after administration” value ([1]; 80 mg/kg) was 17.00 ± 1.61 mg/each mouse/10 min, the “Saliva amount in NOD mice, Two weeks after administration” value ([1]; 80 mg/kg) was 17.00 ± 1.41 mg/each mouse/10 min and the “Saliva amount in NOD mice, Pre-administration” value ([1]; dose group 80 mg/kg) was 19.17 ± 3.18 mg/each mouse/10 min. The “Score: mice with submaxillary gland pathology Grade 0” value ([4]; 80 mg/kg) was 0, the “Score: mice with submaxillary gland pathology Grade I” value ([4]; 80 mg/kg) was 0 and the “Score: mice with submaxillary gland pathology Grade II” value ([4]; 80 mg/kg) was 0. For the same compound, the “Score: mice with submaxillary gland pathology Grade III” value ([4]; 80 mg/kg) was 3, the “Score: mice with submaxillary gland pathology Grade IV” value ([4]; 80 mg/kg) was 1^# and the “Score: mice with submaxillary gland pathology Grade 0” value ([5]; 80 mg/kg) was 0. The “Score: mice with submaxillary gland pathology Grade I” value ([5]; 80 mg/kg) was 0, the “Score: mice with submaxillary gland pathology Grade II” value ([5]; 80 mg/kg) was 0 and the “Score: mice with submaxillary gland pathology Grade III” value ([5]; 80 mg/kg) was 3. For the same compound, the “Score: mice with submaxillary gland pathology Grade IV” value ([5]; 80 mg/kg) was 1 ^#, the “Saliva amount in SS mice, One week after administration” value ([6]; Example 1, C57BL/6 SS mice, 80 mg/kg) was 18.17 ± 3.65 mg/each mouse/10 min and the “Saliva amount in SS mice, Pre-administration” value ([6]; Example 1, C57BL/6 SS mice, dose group 80 mg/kg) was 23.17 ± 2.79 mg/each mouse/10 min. The “Saliva amount, One week after” value ([6]; SS model mice, 80 mg/kg) was 18.17 ± 3.65 mg/10 min, the “Saliva amount, Pre-administration” value ([6]; SS model mice, dose group 80 mg/kg) was 23.17 ± 2.79 mg/10 min and the “Curative effect judged on saliva amount after one week of medication” value ([6]; SS model mice) was “did not show apparent effect”.
